From US10213415B2, “Compounds as opioid receptor modulators” (JANSSEN PHARMACEUTICA NV, priority 2004, dated 2019)

Legend:
[1] = target: T1, delta opioid receptor (Rattus norvegicus, UniProt P33533); experiment: Rat Brain Delta Opioid Receptor Binding Assay ([3H]DPDPE); details: rat forebrain membranes, margin of error 10-20%, read-out: r Ki δ
T1 construct: from tissue; host or cells: forebrain of male Wistar rats
Experimental: (§1) Male, Wistar rats (150-250 g, VAF, Charles River, Kingston, N.Y.) are killed by cervical dislocation, and their brains removed and placed immediately in ice cold Tris HCl buffer (50 mM, pH 7.4). The forebrains are separated from the remainder of the brain by a coronal transection, beginning dorsally at the colliculi and passing ventrally through the midbrain-pontine junction. After dissection, the forebrains are homogenized in Tris buffer in a Teflon® glass homogenizer. The homogenate is diluted to a concentration of 1 g of forebrain tissue per 80 mL Tris and centrifuged at 39,000×g for 10 min. The pellet is resuspended in the same volume of Tris buffer containing 5 mM MgCl2 with several brief pulses from a Polytron homogenizer. This particulate preparation is used for the delta opioid binding assays. Following incubation with the delta selective peptide ligand ˜4 nM [^3H]DPDPE at 25° C. for 2.5 h in a 96-well plate with total volume of 1 mL, the plate contents are filtered through Wallac filtermat B sheets on a Tomtec 96-well harvester. The filters are rinsed three times with 2 mL of 10 mM HEPES (pH 7.4), and dried in a microwave oven 2 min twice. To each sample area 2×50 μL of Betaplate Scint scintillation fluid (LKB) is added and analyzed on a LKB (Wallac) 1205 BetaPlate liquid scintillation counter.
(§2) The data are used to calculate either the % inhibition compared to control binding (when only a single concentration of test compound is evaluated) or a Ki value (when a range of concentrations is tested). % inhibition is calculated as: [(total dpm−test compound dpm)/(total dpm−nonspecific dpm)]*100. Kd and Ki values were calculated using GraphPad PRISM data analysis program.

[2] = target: T2, mu opioid receptor (Rattus norvegicus, UniProt P33535); experiment: Rat Brain Mu Opioid Receptor Binding Assay (and Version 2a, [3H]DAMGO); details: rat forebrain membranes, margin of error 10-20%, read-out: r Ki μ
T2 construct: from tissue; host or cells: forebrain of male Wistar rats
T2 sequence (P33535 whole entry): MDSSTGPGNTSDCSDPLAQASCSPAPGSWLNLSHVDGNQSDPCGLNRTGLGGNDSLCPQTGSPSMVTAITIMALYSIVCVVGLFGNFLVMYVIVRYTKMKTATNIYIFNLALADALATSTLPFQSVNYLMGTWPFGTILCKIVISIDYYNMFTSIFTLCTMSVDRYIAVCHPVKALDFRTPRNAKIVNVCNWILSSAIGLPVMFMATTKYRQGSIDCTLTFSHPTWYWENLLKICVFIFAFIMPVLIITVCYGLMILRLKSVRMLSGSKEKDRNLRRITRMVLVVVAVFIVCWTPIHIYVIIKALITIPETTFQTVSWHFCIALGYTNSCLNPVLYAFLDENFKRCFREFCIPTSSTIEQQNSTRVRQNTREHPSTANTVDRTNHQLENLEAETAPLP
Experimental: as §1, with “mu-opioid” for “delta opioid”, “Following incubation with the delta selective peptide ligand ˜4 nM [^3H]DPDPE at 25° C. for 2.5 h in a 96-well plate with total volume of 1 mL, the plate contents are filtered through Wallac filtermat B sheets on a Tomtec 96-well harvester.” left out, “(pH7.4),” for “(pH 7.4),”
as §2, with “dpm-test” for “dpm−test”, “dpm-nonspecific” for “dpm−nonspecific”
Male, Wistar rats (150-250 g, VAF, Charles River, Kingston, N.Y.) were killed by cervical dislocation, and their brains removed and placed immediately in ice-cold Tris HCl buffer (50 mM, pH 7.4). The forebrains were separated from the remainder of the brain by a coronal transection, beginning dorsally at the colliculi and passing ventrally through the midbrain-pontine junction. After dissection, the forebrains were homogenized in Tris buffer in a Teflon®-glass homogenizer. The homogenate was diluted to a concentration of 1 g of forebrain tissue per 80 mL Tris and centrifuged at 39,000×g for 10 min. The pellet was resuspended in the same volume of Tris buffer containing 5 mM MgCl2 with several brief pulses from a Polytron homogenizer. This particulate preparation was used for the mu opioid binding assay. Following incubation with 0.8 nM of the mu selective ligand [^3H]DAMGO at 25° C. for 2.5 h in a 96-well plate with total 1 mL, the plate contents were filtered through Wallac filtermat B sheets on a Tomtec 96-well harvester. The filters were rinsed three times with 2 mL of 10 mM HEPES (pH 7.4), and dried in a microwave oven. To each sample area, Betaplate Scint scintillation fluid (LKB) was added and the resulting radioactivity quantified on a LKB (Wallac) 1205 BetaPlate liquid scintillation counter. Kd and Ki values were calculated using the GraphPad PRISM data analysis program.

[3] = target: T3, mu opioid receptor (CHO-hMOR cell membranes) (Homo sapiens, UniProt P35372); experiment: Mu Opioid Receptor Functional Assay: [35S]GTPγS Binding in CHO-hMOR Cell Membranes, Versions 1 and 2; type: biochemical; details: for MOR GTP binding assay_v1 (% I): version 1, % inhibition of agonist-stimulated GTPγS binding; for MOR GTP assay_v1 % of Basal: version 1, basal binding = 100%
T3 construct: purchased Receptor Biology, Inc. (Baltimore, Md.); host or cells: CHO cells (recombinant expression)
T3 sequence (P35372 whole entry): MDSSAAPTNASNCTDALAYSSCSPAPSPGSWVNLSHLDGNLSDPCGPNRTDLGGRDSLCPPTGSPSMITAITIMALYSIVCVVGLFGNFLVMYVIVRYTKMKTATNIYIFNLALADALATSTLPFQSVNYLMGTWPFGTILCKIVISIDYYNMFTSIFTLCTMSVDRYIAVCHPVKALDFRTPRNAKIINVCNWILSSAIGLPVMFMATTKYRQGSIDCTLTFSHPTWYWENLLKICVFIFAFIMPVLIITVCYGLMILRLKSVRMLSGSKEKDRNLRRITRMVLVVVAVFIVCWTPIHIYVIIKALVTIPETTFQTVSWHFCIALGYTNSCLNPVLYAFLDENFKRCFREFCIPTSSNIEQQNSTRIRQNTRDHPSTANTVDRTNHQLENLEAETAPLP
Experimental: CHO-hMOR cell membranes were purchased from Receptor Biology, Inc. (Baltimore, Md.). About 10 mg/ml of membrane protein was suspended in 10 mM TRIS-HCl pH 7.2, 2 mM EDTA, 10% sucrose, and the suspension kept on ice. One ml of membranes was added to 15 ml cold binding assay buffer containing 50 mM HEPES, pH 7.6, 5 mM MgCl2, 100 mM NaCl, 1 mM DTT and 1 mM EDTA. The membrane suspension was homogenized with a Polytron and centrifuged at 3,000 rpm for 10 min. The supernatant was then centrifuged at 18,000 rpm for 20 min. The pellet was resuspended in 10 ml assay buffer with a Polytron.
The membranes were preincubated with wheat germ agglutinin coated SPA beads (Amersham) at 25° C. for 45 min in the assay buffer. The SPA bead (5 mg/ml) coupled membranes (10 μg/ml) were then incubated with 0.5 nM [^35S]GTPγS in the assay buffer. […] A range of concentrations of receptor agonists was used to stimulate [^35S]GTPγS binding. Both basal and non-specific binding was tested in the absence of agonist; non-specific binding determination included 10 μM unlabeled GTPγS.
Compounds were tested for function as antagonists by evaluating their potential to inhibit agonist-stimulated GTPγS binding. Radioactivity was quantified on a Packard TopCount. The following parameters were calculated:
[formula] % Inhibition=(% stimulation by 1 μM SNC80−% stimulation by 1 μM SNC80 in presence of test compound)×100/(% Stimulation by 1 μM SNC80−100)
EC50 values were calculated using GraphPad Prism.

[4] = target: T4, human mu opioid receptor (Homo sapiens, UniProt P35372); experiment: Human Mu Opioid Receptor Binding Assay (CHO membranes, 3H-Damgo); details: read-out: hKi μ
T4 construct: purchased Perkin Elmer RBHOMM400UA; host or cells: Chinese Hamster Ovary cells (recombinant expression)
T4 sequence (P35372 whole entry): as above
In short: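 Radioligand displacement of ³H-Damgo (diluted to 3.6 nM pre-mix) from recombinant human mu receptor in CHO membranes, 2 h, room temperature, 50 mM Tris pH 7.5 with 5 mM MgCl2. Bound label read by filtration and scintillation counting; 1 μM unlabelled Damgo defines nonspecific binding.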

T1 sequence (P33533 whole entry): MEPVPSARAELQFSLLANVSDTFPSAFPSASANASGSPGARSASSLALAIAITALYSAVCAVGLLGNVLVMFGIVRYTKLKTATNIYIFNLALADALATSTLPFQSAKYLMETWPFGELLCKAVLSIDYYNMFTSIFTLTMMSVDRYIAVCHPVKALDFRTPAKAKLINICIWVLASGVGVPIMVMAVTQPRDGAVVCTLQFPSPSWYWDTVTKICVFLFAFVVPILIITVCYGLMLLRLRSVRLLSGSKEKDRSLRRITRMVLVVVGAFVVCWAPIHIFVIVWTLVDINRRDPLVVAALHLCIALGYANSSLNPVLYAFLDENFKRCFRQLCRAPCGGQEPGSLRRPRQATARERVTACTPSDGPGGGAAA

Row | SMILES | Ki [1] [nM] | Ki [2] [nM] | MOR GTP binding assay_v1 (% I) [3] [%] | MOR GTP assay_v1 % of Basal [3] [%] | Ki [4] [nM]
1 | COC(=O)c1cc(CN(C(=O)[C@H](N)Cc2ccc(C(N)=O)cc2)[C@H](C)c2nc(-c3ccccc3)c[nH]2)ccc1OC [Cpd 284] | 1530 | 1030 | – | – | –
2 | CCNC(=O)c1cc(C)c(C[C@H](N)C(=O)N(C)[C@H](C)c2nc(-c3ccccc3)c[nH]2)c(C)c1 [Cpd 182] | 1860 | 7 | 6.00 | – | –
3 | Cc1cc(O)cc(C)c1C[C@H](N)C(=O)N[C@@H](Cc1cccc(C#N)c1)c1nc(-c2ccccc2)c[nH]1 [Cpd 173] | 5070 | 45.7 | 85.00 | 147.00 | –
4 | Cc1cc(O)cc(C)c1C[C@H](N)C(=O)N[C@@H](C)c1nc(-c2ccccc2)c[nH]1 [Cpd 209] | 708 | 17 | 10.00 | 295.00 | 23
5 | COC(=O)c1cc(CN(C(=O)[C@@H](N)Cc2ccc(O)cc2)[C@@H](C)c2nc(-c3ccccc3)c[nH]2)ccc1OC [Cpd 279] | 5.2 | 0.137 | – | – | –
6 | Cc1cc(O)cc(C)c1C[C@H](N)C(=O)N[C@H](c1nc(-c2ccccc2)c[nH]1)C(C)C [Cpd 187] | 5200 | 121 | – | – | –
7 | Cc1cc(O)cc(C)c1C[C@H](N)C(=O)N(Cc1ccccc1)[C@H](C)c1nc(-c2ccccc2)c[nH]1 [Cpd 220] | 6920 | 157 | – | – | 377
8 | C[C@@H](c1nc(-c2ccccc2)c[nH]1)N(C)C(=O)[C@@H](N)Cc1ccc(O)cc1 [Cpd 211] | 180 | 5.9 | 10.00 | 371.00 | –
9 | CC(C)N(C(=O)[C@@H](N)Cc1ccc(O)cc1)[C@H](C)c1nc(-c2ccccc2)c[nH]1 [Cpd 222] | 394 | 91.2 | – | – | 185
10 | C[C@H](NC(=O)[C@@H](N)Cc1ccc(O)cc1)c1nc(-c2ccccc2)c[nH]1 [Cpd 213] | 5660 | 1260 | – | – | > 1000
11 | COc1ccc(CN(C(=O)[C@@H](N)Cc2ccc(O)cc2)[C@@H](C)c2nc(-c3ccccc3)c[nH]2)cc1C(=O)N1CCOCC1 [Cpd 298] | 44 | 0.3 | – | – | –
12 | CC(C)[C@H](NC(=O)[C@@H](N)Cc1cccc(C#N)c1)c1nc(-c2ccccc2)c[nH]1 [Cpd 186] | 515 | 5310 | – | – | –
13 | COC(=O)c1cc(CN(C(=O)[C@@H](N)Cc2c(C)cc(C(N)=O)cc2C)[C@H](C)c2nc(-c3ccccc3)c[nH]2)ccc1OC [Cpd 280] | 32 | 3 | – | – | –
14 | COc1ccc(CN(C(=O)[C@@H](N)Cc2c(C)cc(C(N)=O)cc2C)[C@H](C)c2nc(-c3ccc(Cl)cc3)c(C)[nH]2)cc1C(=O)O [Cpd 278] | 49 | 12 | – | – | –
15 | C[C@@H](NC(=O)[C@@H](N)Cc1ccc(O)cc1)c1nc(-c2ccccc2)c[nH]1 [Cpd 212] | 1280 | 103 | – | – | 55
16 | Cc1cc(O)cc(C)c1C[C@H](N)C(=O)N[C@@H](Cc1ccccc1)c1nc(-c2ccccc2)c[nH]1 [Cpd 177] | 255 | 13.4 | 23.00 | 625.00 | –
17 | CN[C@@H](Cc1ccc(O)cc1)C(=O)N(Cc1ccc(OC)c(C(=O)O)c1)[C@@H](C)c1nc(-c2ccccc2)c[nH]1 [Cpd 262] | 17.5 | 1.1 | – | – | 3.24
18 | CCNC(=O)c1cc(C)c(C[C@H](N)C(=O)N(C)[C@@H](C)c2nc(-c3ccccc3)c[nH]2)c(C)c1 [Cpd 181] | 341 | 1.3 | 1.00 | – | –
19 | CC(C)C[C@@H](c1nc(-c2ccccc2)c[nH]1)N(C)C(=O)[C@@H](N)Cc1cccc(C(N)=O)c1 [Cpd 168] | 8870 | 5320 | – | – | –
20 | COc1ccc(CN(C(=O)[C@@H](N)Cc2ccc(O)cc2)[C@@H](C)c2nc(-c3ccccc3)c[nH]2)cc1C(N)=O [Cpd 297] | 44 | 0.11 | – | – | –
21 | C[C@@H](c1nc(-c2ccccc2)c[nH]1)N(C)C(=O)[C@@H](N)Cc1ccc(S(N)(=O)=O)cc1 [Cpd 189] | 360 | 277 | – | – | –
22 | Cc1cc(O)cc(C)c1C[C@H](N)C(=O)N[C@@H](COCc1ccccc1)c1nc(-c2ccccc2)c[nH]1 [Cpd 175] | 166 | 3.6 | 53.00 | 471.00 | –
23 | COc1ccc(CN(C(=O)[C@@H](N)Cc2ccc(O)cc2)[C@@H](C)c2nc(-c3ccc(Cl)cc3)c(C)[nH]2)cc1C(=O)O [Cpd 293] | 3170 | 646 | – | – | –
24 | COC(=O)c1cc(CN(C(=O)[C@@H](N)Cc2ccc(C(N)=O)cc2)[C@H](C)c2nc(-c3ccccc3)c[nH]2)ccc1OC [Cpd 281] | 721 | 399 | – | – | –
25 | CC(C)[C@H](NC(=O)[C@@H](N)Cc1cccc(C(N)=O)c1)c1nc(-c2ccccc2)c[nH]1 [Cpd 185] | 182 | 6720 | – | – | –
26 | Cc1cc(C(=O)N2CCOCC2)cc(C)c1C[C@H](N)C(=O)N(C)[C@H](C)c1nc(-c2ccccc2)c[nH]1 [Cpd 180] | 5220 | 1210 | – | – | –
27 | CC(C)[C@H](NC(=O)[C@@H](N)Cc1ccc(O)cc1)c1nc(-c2ccccc2)c[nH]1 [Cpd 188] | 541 | 307 | – | – | –
28 | COc1ccc(CN(C(=O)[C@@H](N)Cc2c(C)cccc2C)[C@@H](C)c2nc(-c3ccccc3)c[nH]2)cc1C(=O)O [Cpd 292] | 100 | 0.65 | – | – | –
